Laboratory results as given in article PMC7464270, “The Interaction of Bovine β-Lactoglobulin with Caffeic Acid: From Binding Mechanisms to Functional Complexes” (Biomolecules, 2020).

Biological target: T1, native bovine β-lactoglobulin (n-β-LG) (Bos taurus, UniProt P02754)
T1 construct: gene LGB; dimer prevails at physiological pH
T1 sequence (P02754 17-178): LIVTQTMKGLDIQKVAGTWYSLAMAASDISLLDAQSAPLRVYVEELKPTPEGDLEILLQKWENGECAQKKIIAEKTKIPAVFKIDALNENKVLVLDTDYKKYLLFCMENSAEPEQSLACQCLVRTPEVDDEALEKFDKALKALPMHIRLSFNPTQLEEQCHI
Assay: intrinsic tryptophan fluorescence quenching (excitation […] nm)
Format: binding
Settings: native protein treated at 25 °C (measured at 23 ± 1 °C), Tris buffer pH 8.0; double-log

With `O=C(O)/C=C/c1ccc(O)c(O)c1` [CA, caffeic acid] the “n-β-LG / Kb (10^6 Mol^-1)” value was 0.72 ± 0.03 10^6 Mol^-1.
